Tests used:
c-Kit kinase = c-Kit kinase (Homo sapiens, UniProt P10721); experiment: c-Kit kinase biochemical activity assay (AlphaScreen, biotin-(E4Y)10 phosphorylation); conditions: 100 μM ATP; read-out: Biochemical Inhibition IC50 Kit
Summary of the method: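 Phosphorylation of 30 nM biotin-(E4Y)10 by c-Kit (0.75 ng per reaction) with 100 µM ATP in HEPES pH 7.5 buffer with Mg2+/Mn2+, 5% DMSO, 1 h at room temperature; 8-point 1:2 compound dilutions. AlphaScreen detection with streptavidin donor and PY20 acceptor beads after EDTA stop. IC50 from signal versus concentration.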

[1] = Relative solubility by turbidity in aqueous buffers (pH 1.5, 4.5, 6.8, 7.4); type: physicochemical; conditions: for turbidity threshold (L, M, H) 1.4: pH 1.5 (SGF); for turbidity threshold (L, M, H) 4.5: pH 4.5 (SIF); for turbidity threshold (L, M, H) 6.8: pH 6.8 (SIF); for turbidity threshold (L, M, H) 7.4: pH 7.4 (HEPES)
Summary of the method: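 Twofold DMSO dilutions of a 25 mM stock were spiked into SGF (0.5M NaCl, pH 1.5), SIF (0.05M NaH2PO4, pH 4.5 and 6.8) or HEPES buffer (10 mM HEPES, 150 mM NaCl, pH 7.4). Absorbance was read at 490, 535 and 650 nm. The endpoint is the concentration crossing O.D. 0.01, averaged across wavelengths.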

CYP3A4(BQ) = CYP3A4(BQ) (Homo sapiens, UniProt P08684); experiment: CYP3A4(BQ) inhibition; type: in vitro ADME; conditions: CYP3A4, substrate BQ; read-out: Cyp IC50 3A4(BQ)
Summary of the method: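 Inhibition of human CYP3A4 (BQ substrate) was measured by fluorescence, since blocking metabolism of a known substrate lowers the fluorescent product signal. Compounds dissolved in DMSO at 100 mM were diluted into acetonitrile and then into NADPH regeneration cofactor mix, serially diluted 1:1 across 10 points, and preincubated in 384 well plates for 10 minutes at 37° C.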

c-Kit kinase, sequence (P10721 26-976): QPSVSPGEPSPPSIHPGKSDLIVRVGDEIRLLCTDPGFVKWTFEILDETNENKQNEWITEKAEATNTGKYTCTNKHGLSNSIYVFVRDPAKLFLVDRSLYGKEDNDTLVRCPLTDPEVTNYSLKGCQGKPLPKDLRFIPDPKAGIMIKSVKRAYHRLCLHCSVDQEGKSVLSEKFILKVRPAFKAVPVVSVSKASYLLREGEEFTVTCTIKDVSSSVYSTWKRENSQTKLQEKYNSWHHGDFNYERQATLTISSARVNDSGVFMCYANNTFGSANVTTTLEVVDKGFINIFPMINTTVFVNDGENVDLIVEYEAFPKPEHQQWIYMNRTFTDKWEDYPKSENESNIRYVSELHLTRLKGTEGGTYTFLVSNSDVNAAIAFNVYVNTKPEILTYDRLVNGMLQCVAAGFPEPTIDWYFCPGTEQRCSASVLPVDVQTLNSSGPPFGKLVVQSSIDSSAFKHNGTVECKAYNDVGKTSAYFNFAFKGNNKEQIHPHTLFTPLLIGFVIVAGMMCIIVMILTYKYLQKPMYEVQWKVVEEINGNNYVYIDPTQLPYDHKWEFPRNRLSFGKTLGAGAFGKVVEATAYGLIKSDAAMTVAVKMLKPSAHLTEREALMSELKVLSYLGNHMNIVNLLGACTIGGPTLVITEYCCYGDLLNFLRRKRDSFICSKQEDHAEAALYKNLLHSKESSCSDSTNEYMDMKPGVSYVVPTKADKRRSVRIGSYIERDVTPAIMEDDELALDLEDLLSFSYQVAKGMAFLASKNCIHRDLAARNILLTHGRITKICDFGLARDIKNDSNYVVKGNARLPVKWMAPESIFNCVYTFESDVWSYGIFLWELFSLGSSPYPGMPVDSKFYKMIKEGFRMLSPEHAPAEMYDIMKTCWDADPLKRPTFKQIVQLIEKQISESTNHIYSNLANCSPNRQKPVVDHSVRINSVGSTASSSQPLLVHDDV
CYP3A4(BQ), sequence (P08684 whole entry): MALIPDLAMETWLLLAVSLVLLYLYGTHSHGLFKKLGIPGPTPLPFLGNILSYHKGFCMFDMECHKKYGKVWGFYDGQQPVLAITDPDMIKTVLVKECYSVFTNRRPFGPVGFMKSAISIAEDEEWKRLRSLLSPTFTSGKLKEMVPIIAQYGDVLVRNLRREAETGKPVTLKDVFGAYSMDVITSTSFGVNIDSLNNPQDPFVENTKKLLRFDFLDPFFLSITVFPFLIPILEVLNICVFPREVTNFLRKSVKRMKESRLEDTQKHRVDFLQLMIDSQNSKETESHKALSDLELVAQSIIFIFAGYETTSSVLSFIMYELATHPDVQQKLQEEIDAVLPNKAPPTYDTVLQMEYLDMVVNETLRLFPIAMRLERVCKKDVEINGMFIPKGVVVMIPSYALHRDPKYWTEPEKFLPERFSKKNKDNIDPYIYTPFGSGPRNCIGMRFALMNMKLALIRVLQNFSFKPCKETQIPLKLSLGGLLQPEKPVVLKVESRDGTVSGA

SMILES	IC50 (c-Kit kinase) [nM]	IC50 (CYP3A4(BQ)) [nM]	turbidity threshold (L, M, H) 1.4 [1]	turbidity threshold (L, M, H) 4.5 [1]	turbidity threshold (L, M, H) 6.8 [1]	turbidity threshold (L, M, H) 7.4 [1]
COc1ccc(Nc2ccc(C(=O)c3c[nH]c4ncnc(N5CCOCC5)c34)c(F)n2)cn1 [Compound P-4070, [2-fluoro-6-[(6-methoxy-3-pyridyl)amino]-3-pyridyl]-(4-morpholino-7H-pyrrolo[2,3-d]pyrimidin-5-yl)methanone]	> 1000	> 10000	H (high solubility if the threshold concentration is >250 μm)	M (moderate solubility if the threshold concentration is 31.3 μM to 250 μM)	M (moderate solubility if the threshold concentration is 31.3 μM to 250 μM)	M (moderate solubility if the threshold concentration is 31.3 μM to 250 μM)
COc1ccc(Nc2ccc(C(=O)c3c[nH]c4ncnc(NCc5ccc(C(F)(F)F)nc5)c34)c(F)n2)cn1 [Compound P-4071, [2-fluoro-6-[(6-methoxy-3-pyridyl)amino]-3-pyridyl]-[4-[[6-(trifluoromethyl)-3-pyridyl]methylamino]-7H-pyrrolo[2,3-d]pyrimidin-5-yl]methanone]	> 1000	> 10000	M (moderate solubility if the threshold concentration is 31.3 μM to 250 μM)	M (moderate solubility if the threshold concentration is 31.3 μM to 250 μM)	M (moderate solubility if the threshold concentration is 31.3 μM to 250 μM)	M (moderate solubility if the threshold concentration is 31.3 μM to 250 μM)
COc1ccc(Nc2ccc(C(=O)c3c[nH]c4ncnc(N[C@@H](C)c5ccc(F)cc5)c34)c(F)n2)cn1 [Compound P-4072, [2-fluoro-6-[(6-methoxy-3-pyridyl)amino]-3-pyridyl]-[4-[[(1S)-1-(4-fluorophenyl)ethyl]amino]-7H-pyrrolo[2,3-d]pyrimidin-5-yl]methanone]	> 1000	> 10000	M (moderate solubility if the threshold concentration is 31.3 μM to 250 μM)	L (low solubility if the threshold concentration is <31.3 μM)	L (low solubility if the threshold concentration is <31.3 μM)	L (low solubility if the threshold concentration is <31.3 μM)
CCC(C)Nc1ncnc2[nH]cc(C(=O)c3ccc(Nc4ccc(OC)nc4)nc3F)c12 (stereo not drawn) [Compound P-4078, [2-fluoro-6-[(6-methoxy-3-pyridyl)amino]-3-pyridyl]-[4-(sec-butylamino)-7H-pyrrolo[2,3-d]pyrimidin-5-yl]methanone]	< 1000	> 10000	M (moderate solubility if the threshold concentration is 31.3 μM to 250 μM)	L (low solubility if the threshold concentration is <31.3 μM)	L (low solubility if the threshold concentration is <31.3 μM)	L (low solubility if the threshold concentration is <31.3 μM)
CCCCNc1ncnc2[nH]cc(C(=O)c3ccc(Nc4ccc(OC)nc4)nc3F)c12 [Compound P-4080, [4-(butylamino)-7H-pyrrolo[2,3-d]pyrimidin-5-yl]-[2-fluoro-6-[(6-methoxy-3-pyridyl)amino]-3-pyridyl]methanone]	< 1000	> 10000	M (moderate solubility if the threshold concentration is 31.3 μM to 250 μM)	M (moderate solubility if the threshold concentration is 31.3 μM to 250 μM)	H (high solubility if the threshold concentration is >250 μm)	M (moderate solubility if the threshold concentration is 31.3 μM to 250 μM)

The next lines start with results.

IC50 (c-Kit kinase) [nM]	IC50 (CYP3A4(BQ)) [nM]	SMILES	turbidity threshold (L, M, H) 1.4 [1]	turbidity threshold (L, M, H) 4.5 [1]	turbidity threshold (L, M, H) 6.8 [1]	turbidity threshold (L, M, H) 7.4 [1]
< 1000	> 10000	COc1ccc(Nc2ccc(C(=O)c3c[nH]c4ncnc(NCC5CCCO5)c34)c(F)n2)cn1 (stereo not drawn) [Compound P-4073, [2-fluoro-6-[(6-methoxy-3-pyridyl)amino]-3-pyridyl]-[4-(tetrahydrofuran-2-ylmethylamino)-7H-pyrrolo[2,3-d]pyrimidin-5-yl]methanone]	M (moderate solubility if the threshold concentration is 31.3 μM to 250 μM)	L (low solubility if the threshold concentration is <31.3 μM)	L (low solubility if the threshold concentration is <31.3 μM)	L (low solubility if the threshold concentration is <31.3 μM)
< 1000	> 10000	CCN1CCC(Nc2ncnc3[nH]cc(C(=O)c4ccc(Nc5ccc(OC)nc5)nc4F)c23)CC1 [Compound P-4074, [4-[(1-ethyl-4-piperidyl)amino]-7H-pyrrolo[2,3-d]pyrimidin-5-yl]-[2-fluoro-6-[(6-methoxy-3-pyridyl)amino]-3-pyridyl]methanone]	H (high solubility if the threshold concentration is >250 μm)	M (moderate solubility if the threshold concentration is 31.3 μM to 250 μM)	M (moderate solubility if the threshold concentration is 31.3 μM to 250 μM)	M (moderate solubility if the threshold concentration is 31.3 μM to 250 μM)
< 1000	> 10000	COc1ccc(Nc2ccc(C(=O)c3c[nH]c4ncnc(NC5CCCC5)c34)c(F)n2)cn1 [Compound P-4075, [4-(cyclopentylamino)-7H-pyrrolo[2,3-d]pyrimidin-5-yl]-[2-fluoro-6-[(6-methoxy-3-pyridyl)amino]-3-pyridyl]methanone]	M (moderate solubility if the threshold concentration is 31.3 μM to 250 μM)	L (low solubility if the threshold concentration is <31.3 μM)	L (low solubility if the threshold concentration is <31.3 μM)	L (low solubility if the threshold concentration is <31.3 μM)
< 100	> 5000	COc1ccc(Nc2ccc(C(=O)c3c[nH]c4ncnc(NC5CCC5)c34)c(F)n2)cn1 [Compound P-4076, [4-(cyclobutylamino)-7H-pyrrolo[2,3-d]pyrimidin-5-yl]-[2-fluoro-6-[(6-methoxy-3-pyridyl)amino]-3-pyridyl]methanone]	M (moderate solubility if the threshold concentration is 31.3 μM to 250 μM)	M (moderate solubility if the threshold concentration is 31.3 μM to 250 μM)	M (moderate solubility if the threshold concentration is 31.3 μM to 250 μM)	L (low solubility if the threshold concentration is <31.3 μM)
< 1000	> 10000	CCC(CC)Nc1ncnc2[nH]cc(C(=O)c3ccc(Nc4ccc(OC)nc4)nc3F)c12 [Compound P-4077, [4-(1-ethylpropylamino)-7H-pyrrolo[2,3-d]pyrimidin-5-yl]-[2-fluoro-6-[(6-methoxy-3-pyridyl)amino]-3-pyridyl]methanone]	M (moderate solubility if the threshold concentration is 31.3 μM to 250 μM)	L (low solubility if the threshold concentration is <31.3 μM)	L (low solubility if the threshold concentration is <31.3 μM)	L (low solubility if the threshold concentration is <31.3 μM)
< 100	> 10000	COCCCNc1ncnc2[nH]cc(C(=O)c3ccc(Nc4ccc(OC)nc4)nc3F)c12 [Compound P-4079, [2-fluoro-6-[(6-methoxy-3-pyridyl)amino]-3-pyridyl]-[4-(3-methoxypropylamino)-7H-pyrrolo[2,3-d]pyrimidin-5-yl]methanone]	H (high solubility if the threshold concentration is >250 μm)	M (moderate solubility if the threshold concentration is 31.3 μM to 250 μM)	M (moderate solubility if the threshold concentration is 31.3 μM to 250 μM)	M (moderate solubility if the threshold concentration is 31.3 μM to 250 μM)
